# Target: T1, human orexin-2 (hOX2) receptor (Homo sapiens, UniProt O43614)
# T1 construct: expressed in transfected cells
# T1 sequence (O43614 1-444): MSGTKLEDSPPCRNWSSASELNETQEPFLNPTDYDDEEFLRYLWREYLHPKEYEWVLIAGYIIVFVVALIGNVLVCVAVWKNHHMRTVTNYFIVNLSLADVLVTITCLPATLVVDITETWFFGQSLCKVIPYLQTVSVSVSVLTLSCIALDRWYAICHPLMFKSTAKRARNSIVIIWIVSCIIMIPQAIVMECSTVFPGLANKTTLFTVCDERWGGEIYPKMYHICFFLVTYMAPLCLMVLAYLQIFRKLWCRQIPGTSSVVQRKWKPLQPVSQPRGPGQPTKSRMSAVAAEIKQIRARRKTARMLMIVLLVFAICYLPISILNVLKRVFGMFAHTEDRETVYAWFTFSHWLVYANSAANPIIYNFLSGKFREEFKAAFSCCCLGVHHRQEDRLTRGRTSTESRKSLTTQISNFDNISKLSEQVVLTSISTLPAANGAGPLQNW
# Test: Intracellular Ca2+ mobilization assay (FLIPR), CHO(dHFr-) cells expressing hOX2, orexin-A as agonist
# Format: cell-based
# Conditions: antagonist Kb=IC50/(1+[A]/EC50); orexin-A at EC80; CHO(dHFr-)-OX2R cells; antagonist applied 25 min before agonist
# Description: Intracellular Ca^2+ Mobilization Assay
# The Chinese Hamster Ovary (dHFr-) mutant cell line stably expressing human orexin-1 (hOX1) or human orexin-2 (hOX2) receptors were maintained in Dulbecco's Modified Eagle Medium (1×) with GlutaMax™1, 4500 mg/L D-Glucose and Sodium Pyruvate (Catalog No. 31966-021, Invitrogen, Carlsbad, Calif.), 5% dialyzed fetal calf serum (Catalog No. 26400-044), 100 μg/ml penicillin and 100 μg/ml streptomycin. The cells were seeded at 5×10^4 cells/well in the poly-D-lysine treated, 96-well, black/clear-bottomed plates (Catalog No. BD356640, BD Biosciences, Palo Alto, Calif.). 24 h later, the cells were loaded for 1 h at 37° C. with 4 μM Flou-4 acetoxymethyl ester (Catalog No. F-14202, Molecular Probes, Eugene, Oreg.) in FLIPR buffer (1×HBSS, 20 mM HEPES, 2.5 mM Probenecid). Hanks' Balanced Salt Solution (HBSS) (10×) (catalog No. 14065-049) and HEPES (1M) (catalog No. 15630-056) were purchased from Invitrogen, Carlsbad, Calif. Probenecid (250 mM) (catalog No. P8761) was from Sigma, Buchs, Switzerland. The cells were washed five times with FLIPR buffer to remove excess dye and intracellular calcium mobilization, [Ca^2−]i were measured using a Fluorometric Imaging Plate Reader (FLIPR-96, Molecular Devices, Menlo Park, Calif.) as described previously (Malherbe et al., Mol. Pharmacol., 64, 823-832, 2003). Orexin A (catalog No. 1455, Toris Cookson Ltd, Bristol, UK) was used as agonist. Orexin A ([…] stock solution in DMSO) was diluted in FLIPR buffer+0.1% BSA. The EC50 and EC80 values of orexin-A were measured daily from standard agonist concentration-response curves in CHO(dHFr-)-OX1R and -OX2R cell lines. All compounds were dissolved in 100% DMSO. Inhibition curves were determined by addition of 11 concentrations (0.0001-10 μM) of inhibitory compounds and using EC80 value of orexin-A as agonist (a concentration which gave 80% of max agonist response, determined daily). The antagonists were applied 25 min (incubation at 37° C.) before the application of the agonist. Responses were measured as peak increase in fluorescence minus basal, normalized to the maximal stimulatory effect induced by EC80 value of orexin-A or orexin-B. Inhibition curves were fitted according to the Hill equation: y=100/(1+(x/IC50)^nH), where nH=slope factor using Excel-fit 4 software (Microsoft).
# Kb values were calculated according to the following equation Kb=IC50/(1+[A]/EC50) where A is the concentration of agonist added which is very close to agonist EC80 value, and IC50 and EC50 values were derived from the antagonist inhibition and orexin-A or B agonist curves, respectively.
row,Kb [µM],SMILES
1,0.0279,"COc1cccc(OC)c1C(=O)N1CCC(Nc2nc3ccc(Cl)cc3o2)C1 (stereo not shown) [Example 1, [3-(6-Chloro-benzooxazol-2-ylamino)-pyrrolidin-1-yl]-(2,6-dimethoxy-phenyl)-methanone]"
2,0.0242,"COc1cccc(OC)c1C(=O)N1CC[C@@H](Nc2nc3ccc(Cl)cc3o2)C1 [Example 5, [(R)-3-(6-Chloro-benzooxazol-2-ylamino)-pyrrolidin-1-yl]-(2,6-dimethoxy-phenyl)-methanone]"
3,0.0104,"COc1cccc(OC)c1C(=O)N1CCC(Nc2cnc3ccccc3n2)C1 (stereo not shown) [Example 6, (2,6-Dimethoxy-phenyl)-[3-(quinoxalin-2-ylamino)-pyrrolidin-1-yl]-methanone]"
4,0.0228,"COc1cccc(OC)c1C(=O)N1CCC(Nc2nc3ccc(Cl)cc3s2)C1 (stereo not shown) [Example 7, [3-(6-Chloro-benzothiazol-2-ylamino)-pyrrolidin-1-yl]-(2,6-dimethoxy-phenyl)-methanone]"
5,0.0415,"COc1cccc(OC)c1C(=O)N1CC[C@@H](Nc2cnc3ccccc3n2)C1 [Example 24, (2,6-Dimethoxy-phenyl)-[(R)-3-(quinoxalin-2-ylamino)-pyrrolidin-1-yl]-methanone]"
6,0.0163,"COc1cccc(OC)c1C(=O)N1CC[C@@H](Nc2nc3ccc(Cl)cc3s2)C1 [Example 25, [(R)-3-(6-Chloro-benzothiazol-2-ylamino)-pyrrolidin-1-yl]-(2,6-dimethoxy-phenyl)-methanone]"
7,0.0096,"O=C(c1ccccc1-n1cccc1)N1CC[C@@H](Nc2nc3ccc(Cl)cc3o2)C1 [Example 28, [(R)-3-(6-Chloro-benzooxazol-2-ylamino)-pyrrolidin-1-yl]-(2-pyrrol-1-yl-phenyl)-methanone]"
8,0.0354,"O=C(c1c(Cl)cccc1Cl)N1CC[C@@H](Nc2nc3ccc(Cl)cc3o2)C1 [Example 33, [(R)-3-(6-Chloro-benzooxazol-2-ylamino)-pyrrolidin-1-yl]-(2,6-dichloro-phenyl)-methanone]"
9,0.045,"Cc1cccc(Cl)c1C(=O)N1CC[C@@H](Nc2nc3ccc(Cl)cc3o2)C1 [Example 35, [(R)-3-(6-Chloro-benzooxazol-2-ylamino)-pyrrolidin-1-yl]-(2-chloro-6-methyl-phenyl)-methanone]"
10,0.0302,"COc1cccc(OC)c1C(=O)N1CC[C@@H](Nc2cnc3cc(Cl)ccc3n2)C1 [Example 41, [(R)-3-(6-Chloro-quinoxalin-2-ylamino)-pyrrolidin-1-yl]-(2,6-dimethoxy-phenyl)-methanone]"
11,0.0015,"COc1cccc(OC)c1C(=O)N1CC[C@@H](Nc2nc3c(Cl)cccc3s2)C1 [Example 43, [(R)-3-(4-Chloro-benzothiazol-2-ylamino)-pyrrolidin-1-yl]-(2,6-dimethoxy-phenyl)-methanone]"
12,0.0377,"CCc1ccccc1C(=O)N1CC[C@@H](Nc2nc3ccc(Cl)cc3o2)C1 [Example 47, [(R)-3-(6-Chloro-benzooxazol-2-ylamino)-pyrrolidin-1-yl]-(2-ethyl-phenyl)-methanone]"
13,0.0249,"CCOc1ccccc1C(=O)N1CC[C@@H](Nc2nc3ccc(Cl)cc3o2)C1 [Example 52, [(R)-3-(6-Chloro-benzooxazol-2-ylamino)-pyrrolidin-1-yl]-(2-ethoxy-phenyl)-methanone]"
14,0.0299,"CSc1ccccc1C(=O)N1CC[C@@H](Nc2nc3ccc(Cl)cc3o2)C1 [Example 53, [(R)-3-(6-Chloro-benzooxazol-2-ylamino)-pyrrolidin-1-yl]-(2-methylsulfanyl-phenyl)-methanone]"
15,0.047,"O=C(c1ccccc1OC(F)F)N1CC[C@@H](Nc2nc3ccc(Cl)cc3o2)C1 [Example 56, [(R)-3-(6-Chloro-benzooxazol-2-ylamino)-pyrrolidin-1-yl]-(2-difluoromethoxy-phenyl)-methanone]"
16,0.0025,"O=C(c1ccccc1-c1ccco1)N1CC[C@@H](Nc2nc3ccc(Cl)cc3o2)C1 [Example 57, [(R)-3-(6-Chloro-benzooxazol-2-ylamino)-pyrrolidin-1-yl]-(2-furan-2-yl-phenyl)-methanone]"
